Laboratory results from the supplement of paper PMC10307832.

compound: CC(C)(C)c1nc(-c2cccc(NS(=O)(=O)c3c(F)cccc3F)c2F)c(-c2ccnc(N)n2)s1 [Dabrafenib] + CC1(C)CCC(c2ccc(Cl)cc2)=C(CN2CCN(c3ccc(C(=O)NS(=O)(=O)c4ccc(N[C@H](CCN5CCOCC5)CSc5ccccc5)c(S(=O)(=O)C(F)(F)F)c4)cc3)CC2)C1 [Navitoclax] (partner 0.5 µM); experiment: relative viability (nuclei count vs DMSO), 5 days (fraction); higher = more cells survive; conditions: first compound 0.003 µM
Procedure, shortened: (§1)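 Dosing by pin tool came one day after lung cancer cell lines were seeded in 1536-well plates, using either one drug or a fixed anchor-drug dose plus five library-drug doses (not always all listed) in √10 steps. After 5 days, nuclei were counted on 4× images. Relative viability is treated-well nuclei count divided by vehicle-well nuclei count, and values are medians of duplicate plates.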

Cell Line | relative viability
CAL-12T | 1.28
NCI-H1944 | 0.954
NCI-H2085 | 1.15
IA-LM | 0.901
NCI-H2228 | 0.543
EMC-BAC-2 | 1.27
NCI-H1703 | 1.33
NCI-H1299 | 0.997
A549 | 1.09
HCC-44 | 0.939
Calu-6 | 0.83
EBC-1 | 0.369

same assay, conditions: first compound 0.009487 µM

Cell Line | relative viability
CAL-12T | 1.32
NCI-H1944 | 1.03
NCI-H2085 | 1.14
IA-LM | 0.657
NCI-H2228 | 0.953
NCI-H441 | 0.547
EMC-BAC-2 | 1.19
NCI-H1703 | 1.41
NCI-H1299 | 1.02
A549 | 1.26
HCC-44 | 1.04
NCI-H1792 | 0.61
Calu-6 | 0.799
NCI-H727 | 0.608
EBC-1 | 0.373

same assay, conditions: first compound 0.03 µM

Cell Line | relative viability
CAL-12T | 1.4
NCI-H1944 | 0.971
NCI-H2085 | 1.16
IA-LM | 0.649
NCI-H2228 | 0.693
NCI-H441 | 0.461
EMC-BAC-2 | 0.998
NCI-H1703 | 1.6
NCI-H1299 | 1.06
A549 | 1.28
HCC-44 | 0.939
NCI-H1792 | 0.608
Calu-6 | 0.77
NCI-H727 | 0.543
EBC-1 | 0.32

same assay, conditions: first compound 0.09487 µM

Cell Line | relative viability
CAL-12T | 1.3
NCI-H1944 | 0.968
NCI-H2085 | 1.1
IA-LM | 0.304
NCI-H2228 | 0.854
NCI-H441 | 0.543
EMC-BAC-2 | 1.1
NCI-H1703 | 0.951
NCI-H1299 | 1.01
A549 | 1.18
HCC-44 | 0.843
NCI-H1792 | 0.568
Calu-6 | 0.604
NCI-H727 | 0.545
EBC-1 | 0.145

same assay, conditions: first compound 0.3 µM

Cell Line | relative viability
CAL-12T | 1.27
NCI-H1944 | 0.899
NCI-H2085 | 1.09
IA-LM | 0.172
NCI-H2228 | 0.757
NCI-H441 | 0.465
EMC-BAC-2 | 1.19
NCI-H1703 | 1.09
NCI-H1299 | 1.01
A549 | 1.2
HCC-44 | 1.04
NCI-H1792 | 0.557
Calu-6 | 0.587
NCI-H727 | 0.825
EBC-1 | 0.221

compound: NC(=O)c1ccc(N(C(N)=O)c2c(F)cccc2F)nc1-c1ccc(F)cc1F [VX-702] + Nc1nc2[nH]cc(CCc3ccc(C(=O)N[C@@H](CCC(=O)O)C(=O)O)cc3)c2c(=O)[nH]1 [Pemetrexed] (partner 0.2 µM); experiment: as above; conditions: first compound 0.02 µM
Procedure, shortened: as §1

Cell Line | relative viability
CAL-12T | 0.982
NCI-H1944 | 0.58
NCI-H2085 | 0.82
NCI-H2228 | 0.338
NCI-H441 | 0.24
NCI-H522 | 1.08
EMC-BAC-2 | 0.472
NCI-H650 | 1.22
LCLC-103H | 0.503
HCC-44 | 0.615
NCI-H1648 | 0.737
NCI-H1792 | 0.815
NCI-H2342 | 0.771
NCI-H1563 | 0.751
NCI-H661 | 0.766
NCI-H358 | 0.176

same assay, conditions: first compound 0.2 µM

Cell Line | relative viability
CAL-12T | 1.22
NCI-H1944 | 0.603
NCI-H2085 | 0.957
NCI-H2228 | 0.336
NCI-H441 | 0.233
NCI-H522 | 0.891
EMC-BAC-2 | 0.436
NCI-H650 | 0.932
LCLC-103H | 0.445
HCC-44 | 0.652
NCI-H1648 | 0.617
NCI-H1792 | 0.777
NCI-H2342 | 0.857
NCI-H1563 | 0.785
NCI-H661 | 0.877
NCI-H358 | 0.172

same assay, conditions: first compound 0.6325 µM

Cell Line | relative viability
CAL-12T | 1.14
NCI-H1944 | 0.635
NCI-H2085 | 0.949
NCI-H2228 | 0.37
NCI-H441 | 0.273
NCI-H522 | 0.971
EMC-BAC-2 | 0.407
NCI-H650 | 0.92
LCLC-103H | 0.469
HCC-44 | 0.653
NCI-H1648 | 0.75
NCI-H1792 | 0.881
NCI-H2342 | 0.796
NCI-H1563 | 0.601
NCI-H661 | 0.932
NCI-H358 | 0.168

same assay, conditions: first compound 2 µM

Cell Line | relative viability
CAL-12T | 1.29
NCI-H1944 | 0.382
NCI-H2085 | 0.852
NCI-H2228 | 0.342
NCI-H441 | 0.238
NCI-H522 | 0.999
EMC-BAC-2 | 0.416
NCI-H650 | 0.958
LCLC-103H | 0.469
HCC-44 | 0.678
NCI-H1648 | 0.818
NCI-H1792 | 0.862
NCI-H2342 | 0.796
NCI-H1563 | 0.639
NCI-H661 | 0.971
NCI-H358 | 0.173

compound: NC(=O)c1ccc(N(C(N)=O)c2c(F)cccc2F)nc1-c1ccc(F)cc1F [VX-702] + CC1(C)CCC(c2ccc(Cl)cc2)=C(CN2CCN(c3ccc(C(=O)NS(=O)(=O)c4ccc(N[C@H](CCN5CCOCC5)CSc5ccccc5)c(S(=O)(=O)C(F)(F)F)c4)cc3)CC2)C1 [Navitoclax] (partner 0.5 µM); experiment: as above; conditions: first compound 0.02 µM
Procedure, shortened: as §1

Cell Line | relative viability
CAL-12T | 1.22
NCI-H1944 | 1.04
NCI-H2085 | 1.21
IA-LM | 0.928
NCI-H2228 | 1.29
NCI-H441 | 0.705
EMC-BAC-2 | 1.19
NCI-H1703 | 1.01
NCI-H1299 | 1.1
A549 | 1.25
HCC-44 | 0.93
NCI-H1792 | 0.718
Calu-6 | 0.927
NCI-H727 | 0.439
EBC-1 | 0.441

same assay, conditions: first compound 0.2 µM

Cell Line | relative viability
CAL-12T | 1.18
NCI-H1944 | 1.03
NCI-H2085 | 1.24
IA-LM | 0.853
NCI-H2228 | 0.973
NCI-H441 | 0.632
EMC-BAC-2 | 1.13
NCI-H1703 | 1.35
NCI-H1299 | 1.08
A549 | 1.23
HCC-44 | 0.99
NCI-H1792 | 0.621
Calu-6 | 0.811
NCI-H727 | 0.508
EBC-1 | 0.413

same assay, conditions: first compound 0.6325 µM

Cell Line | relative viability
CAL-12T | 1.3
NCI-H1944 | 1.15
NCI-H2085 | 1.12
IA-LM | 0.658
NCI-H2228 | 0.886
NCI-H441 | 0.511
EMC-BAC-2 | 1.18
NCI-H1703 | 1.08
NCI-H1299 | 1.07
A549 | 1.28
HCC-44 | 0.881
NCI-H1792 | 0.695
Calu-6 | 1.01
NCI-H727 | 0.498
EBC-1 | 0.337

same assay, conditions: first compound 2 µM

Cell Line | relative viability
CAL-12T | 1.35
NCI-H1944 | 0.973
NCI-H2085 | 1.2
IA-LM | 0.905
NCI-H2228 | 0.952
NCI-H441 | 0.871
EMC-BAC-2 | 1.24
NCI-H1703 | 1.47
NCI-H1299 | 1.15
A549 | 1.42
HCC-44 | 1.09
NCI-H1792 | 0.753
Calu-6 | 1.01
NCI-H727 | 0.445
EBC-1 | 0.389

compound: NC(=O)c1ccc(N(C(N)=O)c2c(F)cccc2F)nc1-c1ccc(F)cc1F [VX-702] + COc1cc2c(Oc3ccc(NC(=O)C4(C(=O)Nc5ccc(F)cc5)CC4)cc3F)ccnc2cc1OCCCN1CCOCC1 [Foretinib] (partner 0.25 µM); experiment: as above; conditions: first compound 0.02 µM
Procedure, shortened: as §1

Cell Line | relative viability
ABC-1 | 1.24
CAL-12T | 1.05
NCI-H1944 | 0.812
NCI-H2085 | 1.05
IA-LM | 1.21
NCI-H2228 | 0.889
NCI-H441 | 0.955
EMC-BAC-2 | 0.597
NCI-H1703 | 0.32
NCI-H650 | 1.01
LCLC-103H | 0.71
NCI-H1299 | 1.15
A549 | 1.02
Calu-6 | 0.975
NCI-H2342 | 0.887
NCI-H1563 | 1.04
NCI-H727 | 0.936
NCI-H661 | 1.11
EBC-1 | 0.107
NCI-H358 | 0.692
NCI-H1623 | 0.819

same assay, conditions: first compound 0.2 µM

Cell Line | relative viability
ABC-1 | 0.968
CAL-12T | 1.09
NCI-H1944 | 0.821
NCI-H2085 | 0.898
IA-LM | 1.1
NCI-H2228 | 0.851
NCI-H441 | 0.774
EMC-BAC-2 | 0.93
NCI-H1703 | 0.367
LCLC-103H | 0.702
NCI-H1299 | 1.14
A549 | 0.975
Calu-6 | 0.902
NCI-H2342 | 1.07
NCI-H1563 | 0.914
NCI-H727 | 0.806
NCI-H661 | 1.08
EBC-1 | 0.111
NCI-H358 | 0.598
NCI-H1623 | 0.81

same assay, conditions: first compound 0.6325 µM

Cell Line | relative viability
ABC-1 | 0.859
CAL-12T | 1.01
NCI-H1944 | 0.798
NCI-H2085 | 0.967
IA-LM | 1.2
NCI-H2228 | 1.07
NCI-H441 | 0.984
EMC-BAC-2 | 0.999
NCI-H1703 | 0.325
NCI-H650 | 1.11
LCLC-103H | 0.534
NCI-H1299 | 1.15
A549 | 0.92
Calu-6 | 0.896
NCI-H2342 | 1.02
NCI-H1563 | 1
NCI-H727 | 0.824
NCI-H661 | 1.12
EBC-1 | 0.0889
NCI-H358 | 0.663
NCI-H1623 | 0.835

same assay, conditions: first compound 2 µM

Cell Line | relative viability
ABC-1 | 1.33
CAL-12T | 1.28
NCI-H1944 | 0.71
NCI-H2085 | 0.968
IA-LM | 1.15
NCI-H2228 | 0.887
NCI-H441 | 1.12
EMC-BAC-2 | 1.06
NCI-H1703 | 0.395
NCI-H650 | 1.25
LCLC-103H | 0.881
NCI-H1299 | 1.22
A549 | 1.07
Calu-6 | 0.971
NCI-H2342 | 1.14
NCI-H1563 | 0.822
NCI-H727 | 0.813
NCI-H661 | 1.1
EBC-1 | 0.0899
NCI-H358 | 0.936
NCI-H1623 | 0.744
